From paper PMC9316313, “Biochemical Properties of Atranorin-Induced Behavioral and Systematic Changes of Laboratory Rats” (Life, 2022) come the findings set out here.

For this experiment, the target named is T1, human serum albumin (HSA) (Homo sapiens, UniProt P02768).
T1 construct: gene ALB; Albumin from human serum (A1887, Sigma Aldrich)
In words: intrinsic fluorescence quenching (Stern-Volmer, binding constant KB), synchronous and 3D fluorescence. The following applies: read-out: intrinsic fluorescence quenching (Stern-Volmer, binding constant KB), synchronou (converted).

T1 sequence (P02768 25-609): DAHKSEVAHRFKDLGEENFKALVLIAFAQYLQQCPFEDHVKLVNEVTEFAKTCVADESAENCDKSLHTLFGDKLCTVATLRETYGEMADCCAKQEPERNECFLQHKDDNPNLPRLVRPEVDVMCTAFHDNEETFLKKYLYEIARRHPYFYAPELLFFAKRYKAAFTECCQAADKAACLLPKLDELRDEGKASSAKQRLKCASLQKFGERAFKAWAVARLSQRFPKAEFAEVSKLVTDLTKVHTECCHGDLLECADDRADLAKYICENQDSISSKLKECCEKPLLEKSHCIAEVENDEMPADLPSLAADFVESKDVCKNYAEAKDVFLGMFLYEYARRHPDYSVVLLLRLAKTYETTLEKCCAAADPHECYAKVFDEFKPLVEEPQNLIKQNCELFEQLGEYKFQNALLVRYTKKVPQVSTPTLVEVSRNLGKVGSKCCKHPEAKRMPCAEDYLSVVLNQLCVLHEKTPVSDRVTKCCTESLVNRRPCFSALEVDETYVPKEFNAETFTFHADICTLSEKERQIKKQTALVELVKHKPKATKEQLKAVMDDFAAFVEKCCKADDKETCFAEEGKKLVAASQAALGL

Regarding `COC(=O)c1c(C)cc(OC(=O)c2c(C)cc(O)c(C=O)c2O)c(C)c1O` [ATR, Atranorin], the Kd is 235 nM.
